Structures are written as SMILES.

These results are taken from patent US5686454A, “Camphorcarbonyl” (Merck & Co., Inc., priority 1996, dated 1997).

In the first assay the target is T1, uterine OT receptors (Rattus norvegicus, UniProt P70536).
T1 construct: crude membrane preparation of uteri; from tissue; host or cells: uterus of DES-treated rats, crude membranes
T1 sequence (P70536 1-388): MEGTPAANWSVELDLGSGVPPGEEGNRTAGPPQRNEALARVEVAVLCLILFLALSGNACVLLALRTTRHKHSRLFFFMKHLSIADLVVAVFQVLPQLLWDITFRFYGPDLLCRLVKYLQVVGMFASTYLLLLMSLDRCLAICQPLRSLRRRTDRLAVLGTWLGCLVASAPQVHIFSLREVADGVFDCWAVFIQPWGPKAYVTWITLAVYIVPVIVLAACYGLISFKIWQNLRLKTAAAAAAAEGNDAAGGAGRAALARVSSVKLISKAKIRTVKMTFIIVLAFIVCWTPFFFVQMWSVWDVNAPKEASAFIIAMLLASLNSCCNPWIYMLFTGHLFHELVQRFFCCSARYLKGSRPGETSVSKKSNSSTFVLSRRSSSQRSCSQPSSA
The assay is described as follows: Radioligand binding: competition of [^3 H]oxytocin binding to rat uterine membranes. The settings on record: 1 nM [^3 H]OT, rat uterus membranes, 60 minutes, 22° C., pH 7.4; read-out: IC50. The source says:
RADIOGLIGAND BINDING ASSAYS
The high affinity binding of [^3 H]
The IC50 is the concentration that gives 50% inhibition. As to `Cc1ccccc1N1CCN(C(=O)C2C3CCC(C)(C2O)C3(C)C)CC1` (centres unmarked) [Example 2, 1-[(3-hydroxy-4,7,7-trimethylbicyclo[2.2.1]hept-2-yl)carbonyl]-4-(2-methylphenyl)-piperazine], the IC50 came out at 800 nM.
Still for that read-out and setting: the value for `Cc1ccccc1N1CCN(C(=O)C2(C)C(=O)C3(C)CCC2C3(C)C)CC1` (centres unmarked) [Example 3, 1-(2-methylphenyl)-4-[(2,4,7,7-tetramethyl-3-oxobicyclo[2.2.1]hept-2-yl)carbonyl]-piperazine] was 150 nM.
The same measure, in the same setting: with `Cc1ccccc1N1CCN(C(=O)C2C(=NO)C3(C)CCC2C3(C)C)CC1` (stereo not drawn) [Example 6, 1-(2-methylphenyl)-4-[(4,7,7-trimethyl-3-hydroxyimino-bicyclo[2.2.1]-hept-2-endo-yl)carbonyl]-piperazine] the figure was 82 nM; with `Cc1ccccc1N1CCN(C(=O)C2C3CCC(C)(C2NC(=O)C(CCS(C)(=O)=O)NC(=O)OC(C)(C)C)C3(C)C)CC1` (stereo not drawn) [Example 9, 1-(2-methylphenyl)-4-[(4,7,7-trimethyl-3-exo-(4-methylsulfonyl-2-t-butoxycarbonylamino)butanoylaminobicyclo[2.2.1]hept-2-endo-yl)carbonyl]-piperazine], 6.5 nM.
Still for that read-out and setting: the value for `Cc1ccccc1N1CCN(C(=O)C2C3CCC(C)(C2NC(=O)C(CCS(C)(=O)=O)NC(=O)OC(C)(C)C)C3(C)C)CC1` (stereo not drawn) [Example 11, 1-(2-methylphenyl)-4-[(4,7,7-trimethyl-3-endo-(4-methylsulfonyl-2-t-butoxycarbonylamino)butanoylaminobicyclo[2.2.1]hept-2-endo-yl)carbonyl]-piperazine] was 1100 nM; that for `Cc1ccccc1N1CCN(C(=O)C2C3CCC(C)(C2NC(=O)C(N)CCS(C)(=O)=O)C3(C)C)CC1` (stereo not drawn) [Example 12, 1-(2-methylphenyl)-4-[(4,7,7-trimethyl-3-endo-(4-methylsulfonyl-2-amino)butanoylaminobicyclo[2.2.1]hept-2-endo-yl)carbonyl]-piperazine] was 15.3 nM.
As for `Cc1ccccc1N1CCN(C(=O)C2C3CCC(C)(C2NC(=O)Cc2c[nH]cn2)C3(C)C)CC1` (centres unmarked) [Example 13, 1-(2-Methylphenyl)-4-[(4,7,7-trimethyl-3-(2-(4-imidazolyl))acetylaminobicyclo[2.21]hept-2-yl)carbonyl]-piperazine], the IC50 came out at 33.3 nM.
Take `CC(=O)NC1C(C(=O)N2CCN(c3ccccc3C)CC2)C2CCC1(C)C2(C)C` (centres unmarked) [Example 14, 1-(2-methylphenyl)-4-[(4,7,7-trimethyl-3-acetylaminobicyclo[2.2.1]hept-2-yl)carbonyl]-piperazine]: the IC50 came out at 55 nM.
Take `Cc1ccccc1N1CCN(C(=O)C2C3CCC(C)(C2NC(=O)[C@@H]2CCCN2)C3(C)C)CC1` (some centres unmarked) [Example 15, 1-(2-methylphenyl)-4-[(4,7,7-trimethyl-3-prolylaminobicyclo[2.2.1]hept-2-yl)carbonyl]-piperazine]: the IC50 was determined as 60 nM.
On the same count and under the same terms, with `CCOC(=O)CCN1CCCC1C(=O)NC1C(C(=O)N2CCN(c3ccccc3C)CC2)C2CCC1(C)C2(C)C` (centres unmarked) [Example 16] the figure was 27 nM; with `Cc1ccccc1N1CCN(C(=O)C2C3CCC(C)(C2NC(=O)C(C)(C)O)C3(C)C)CC1` (centres unmarked) [Example 17], 16 nM.
On the same count and under the same terms, the value for `Cc1ccccc1N1CCN(C(=O)C2C3CCC(C)(C2NC(=O)C(O)CO)C3(C)C)CC1` (centres unmarked) [Example 18, 1-(2-methylphenyl)-4-[(4,7,7-trimethyl-3-(2,3-dihydroxy)propionylaminobicyclo[2.2.1]hept-2-yl)carbonyl]-piperazine] was 120 nM; that for `Cc1ccccc1N1CCN(C(=O)C2C3CCC(C)(C2NC(=O)C(NC(=O)OC(C)(C)C)C(C)O)C3(C)C)CC1` (centres unmarked) [Example 19, 1-(2-methylphenyl)-4-[(4,7,7-trimethyl-3-(2-(t-butoxycarbonyl)amino-3-hydroxy)butyrylaminobicyclo[2.2.1]hept-2-yl)carbonyl]-piperazine] was 160 nM.
Same read-out and setting: the value for `Cc1ccccc1N1CCN(C(=O)C2C3CCC(C)(C2NC(=O)C(N)C(C)O)C3(C)C)CC1` (centres unmarked) [Example 20, 1-(2-methylphenyl)-4-[(4,7,7-trimethyl-3-(2-amino-3-hydroxy)butyrylaminobicyclo[2.2.1]hept-2-yl)carbonyl]-piperazine] was 3.6 nM; that for `Cc1ccccc1N1CCN(S(=O)(=O)C[C@]23CC[C@H](CC2=O)C3(C)C)CC1` [Example 37, 1-((7,7-Dimethyl-2-oxo-bicyclo(2.2.1)heptan-1-yl)methanesulfonyl)-4-(2-methylphenyl)piperazine] was 1000 nM; that for `Cc1ccccc1N1CCN(S(=O)(=O)C[C@]23CC[C@H](C[C@]2(O)C(C)C#N)C3(C)C)CC1` (stereo partly drawn) [Example 38, 1-((7,7-Dimethyl-2-exo-hydroxy-2-endo-(1-cyano)ethyl-bicyclo(2.2.1)heptan-1-yl)methanesulfonyl)-4-(2-methylphenyl)piperazine] was 150 nM.
In the case of `Cc1ccccc1N1CCN(S(=O)(=O)C[C@]23CC[C@H](C[C@]2(O)C(C)CN)C3(C)C)CC1` (some centres unmarked) [Example 39], the IC50 was determined as 180 nM.
For the compound `Cc1ccccc1N1CCN(S(=O)(=O)C[C@]23CC[C@H](C[C@]2(O)C(C)CNC(=O)[C@@H]2CCCN2)C3(C)C)CC1` (stereo partly drawn) [Example 40, 1-((7,7-Dimethyl-2-exo-hydroxy-2-endo-2-(1-(1-prolyl)-amino)propylbicyclo(2.2.1)heptan-1-yl)methanesulfonyl)-4-(2-methylphenyl)piperazine], the IC50 came to 34 nM.
The same measure, in the same setting: with `CCOC(=O)CCCN1CCC[C@H]1C(=O)NCC(C)[C@@]1(O)C[C@H]2CC[C@]1(CS(=O)(=O)N1CCN(c3ccccc3C)CC1)C2(C)C` (stereo partly drawn) [Example 41, 1-((7,7-Dimethyl-2-exo-hydroxy-2-endo-2-(1-(1-N-(ethoxycarbonylpropyl)prolyl)amino)propyl-bicyclo(2.2.1)heptan-1-yl)methanesulfonyl)-4-(2-methylphenyl)piperazine] the figure was 100 nM; with `Cc1ccccc1N1CCN(S(=O)(=O)C[C@]23CC[C@H](C[C@]2(O)C(C)CNC(=O)[C@@H]2CCCN2CCCC(=O)O)C3(C)C)CC1` (stereo partly drawn) [Example 42, 1-((7,7-Dimethyl-2-exo-hydroxy-2-endo-2-(1-(1-N-(3-carboxypropyl)prolyl)amino)propyl-bicyclo(2.2.1)heptan-1-yl)methanesulfonyl)-4-(2-methylphenyl) piperazine], 10 nM; with `Cc1ccccc1N1CCN(S(=O)(=O)C[C@]23CC[C@H](C[C@]2(O)C(C)CNC(=O)Cc2c[nH]cn2)C3(C)C)CC1` (stereo partly drawn) [Example 43, 1-((7,7-Dimethyl-2-exo-hydroxy-2-endo-2-(1-(4(5)-imidazolylacetyl)amino)propyl-bicyclo(2.2.1)heptan-1-yl)methanesulfonyl)-4-(2-methylphenyl)piperazine], 8 nM.
The same measure, in the same setting: with `COC(=O)CCN(CCC(=O)OC)CC(C)[C@@]1(O)C[C@H]2CC[C@]1(CS(=O)(=O)N1CCN(c3ccccc3C)CC1)C2(C)C` (stereo partly drawn) [Example 47, 1-((7,7-dimethyl-2-exo-hydroxy-2-endo-2-(1-bis-(2-methoxycarbonylethyl)amino)propyl-bicyclo(2.2.1)heptan-1-yl)methanesulfonyl)-4-(2-methylphenyl)piperazine] the figure was 54 nM; with `Cc1ccccc1N1CCN(S(=O)(=O)C[C@]23CC[C@H](CC2=CCCl)C3(C)C)CC1` [Example 49, 1-((7,7-dimethyl-2-(2-chloro)ethylidinebicyclo-(2.2.1)heptan-1-yl)methanesulfonyl)-4-(2-methyl-phenyl)piperazine], 1100 nM.

Staying with this assay, now noted: IC50, 1 nM [^3 H]OT, rat uterus membranes, 60 minutes, 22° C., pH 7.4.
As to `Cc1ccccc1N1CCN(S(=O)(=O)C[C@]23CC[C@H](C[C@]2(O)C(C)CNC(=O)C2CN4CCC2CC4)C3(C)C)CC1` (stereo partly drawn) [Example 44, 1-((7,7-Dimethyl-2-exo-hydroxy-2-endo-2-(1-(quinuclidin-3-yl-carbonyl)amino)propyl-bicyclo(2.2.1)heptan-1-yl)methanesulfonyl)-4-(2-methylphenyl)piperazine], the IC50 is 18 nM.

The same assay, now with this note: read-out: % inhibition at 1000 nM.
By inhibition is commonly meant the drop in the measured response relative to a control, in per cent. As to `Cc1ccccc1N1CCN(S(=O)(=O)CC23CCC(CC24CO4)C3(C)C)CC1` (single isomer, unassigned) [Example 54, 1-((7,7-Dimethyl-2-spiro-epoxy-bicyclo(2.2.1)heptan-1-yl)methanesulfonyl)-4-(2-methylphenyl)piperazine], the inhibition at 1 µM is 31%.
`Cc1ccccc1N1CCN(C(=O)C2(CC(=O)O)C(=O)C3(C)CCC2C3(C)C)CC1` (centres unmarked) [Example 4, 1-(2-methylphenyl)-4-[(4,7,7-trimethyl-3-oxo-2-carboxymethyl-bicyclo[2.2.1]hept-2-yl)carbonyl]-piperazine]: the inhibition at 1 µM amounted to 53%.
For `Cc1ccccc1N1CCN(C(=O)C2(CC#N)C(=O)C3(C)CCC2C3(C)C)CC1` (centres unmarked) [Example 5], the inhibition at 1 µM was determined as 27%.
The same measure, in the same setting: with `Cc1ccccc1N1CCN(C(=O)C2C3CCC(C)(C2NC(=O)C(N)CCS(C)(=O)=O)C3(C)C)CC1` (stereo not drawn) [Example 10, 1-(2-methylphenyl)-4-[(4,7,7-trimethyl-3-exo-(4-methylsulfonyl-2-amino)butanoylaminobicyclo[2.2.1]hept-2-endo-yl)carbonyl]-piperazine] the figure was 75%.
On the same count and under the same terms, the value for `Cc1ccccc1N1CCN(S(=O)(=O)C[C@]23CC[C@H](CC2=CCNCC(C)C)C3(C)C)CC1` [Example 50, 1-((7,7-dimethyl-2-(2-isobutylamino)ethylidine-bicyclo(2.2.1)heptan-1-yl)methanesulfonlyl)-4-(2-methylphenyl)piperazine] was 44%.
